pEC50: −log10 of the molar value.
Target: T1, hFXR (Homo sapiens, UniProt Q96RI1)
T1 construct: expressed in transfected cells; host or cells: CV-1 cells
T1 sequence (Q96RI1 1-486): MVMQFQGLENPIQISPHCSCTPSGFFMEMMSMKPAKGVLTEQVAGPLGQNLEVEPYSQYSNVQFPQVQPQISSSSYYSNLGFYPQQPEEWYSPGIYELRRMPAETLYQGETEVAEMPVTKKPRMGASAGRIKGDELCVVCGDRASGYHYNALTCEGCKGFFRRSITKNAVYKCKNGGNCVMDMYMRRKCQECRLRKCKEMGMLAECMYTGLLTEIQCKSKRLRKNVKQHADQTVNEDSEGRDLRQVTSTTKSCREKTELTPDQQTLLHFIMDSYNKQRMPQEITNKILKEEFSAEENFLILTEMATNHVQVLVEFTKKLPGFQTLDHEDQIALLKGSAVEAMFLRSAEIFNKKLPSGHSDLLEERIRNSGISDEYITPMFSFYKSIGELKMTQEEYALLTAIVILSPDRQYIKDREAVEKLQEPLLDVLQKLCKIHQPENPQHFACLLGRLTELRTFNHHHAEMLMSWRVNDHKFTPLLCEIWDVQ
T1 sequence (P19793 1-462 partner): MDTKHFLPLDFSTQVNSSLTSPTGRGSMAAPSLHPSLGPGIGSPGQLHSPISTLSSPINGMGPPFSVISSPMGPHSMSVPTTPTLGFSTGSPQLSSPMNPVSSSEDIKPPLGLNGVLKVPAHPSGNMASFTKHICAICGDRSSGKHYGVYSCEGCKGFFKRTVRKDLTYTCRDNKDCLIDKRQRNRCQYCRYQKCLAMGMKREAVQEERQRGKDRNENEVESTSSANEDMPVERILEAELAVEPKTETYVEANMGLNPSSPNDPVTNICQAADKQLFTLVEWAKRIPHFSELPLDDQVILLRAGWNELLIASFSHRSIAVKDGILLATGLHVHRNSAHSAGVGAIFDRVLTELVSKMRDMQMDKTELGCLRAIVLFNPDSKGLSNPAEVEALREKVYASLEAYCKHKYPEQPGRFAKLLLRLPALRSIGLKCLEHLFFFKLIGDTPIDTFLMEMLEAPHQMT
Assay: In Vitro FXR Assay (TK): TK-ECRE-luc reporter in transfected CV-1 cells
Assay type: cell-based
Conditions: 18 hrs incubation, luminescence
Summary of the method: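 CV-1, DMEM/10% charcoal-stripped FBS, 37 °C 5% CO2. Transfection O/N: hFXR + hRXR + TK-ECRE-luc + pCMX-YFP. Cpds (DMSO serial dil.) 18 h; lyse, read luminescence.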

Structure (SMILES)	pEC50
COc1ccc([C@H]2CC[C@H](CN(c3cc(-c4cnc(C5CC5)s4)ccn3)C(=O)[C@H]3CC[C@H](OC(=O)N4CCN(C)CC4)CC3)CC2)cc1Cl [Compound 2.08, trans-4-(((trans-4-(3-Chloro-4-methoxyphenyl)cyclohexyl)methyl)(4-(2-cyclopropylthiazol-5-yl)pyridin-2-yl)carbamoyl)cyclohexyl 4-methylpiperazine-1-carboxylate]	≥ 7.30
COc1ccc([C@H]2CC[C@H](CN(c3cc(-c4cnn(CCF)c4)ccn3)C(=O)[C@H]3CC[C@H](OC(=O)N4CC(O)C4)CC3)CC2)cc1C [Compound 2.23, trans-4-((4-(1-(2-Fluoroethyl)-1H-pyrazol-4-yl)pyridin-2-yl) ((trans-4-(4-methoxy-3-methylphenyl)cyclohexyl)methyl)carbamoyl) cyclohexyl 3-hydroxyazetidine-1-carboxylate]	≥ 7.30
COc1ccc([C@H]2CC[C@H](CN(c3cc(-c4cnn(C(C)C)c4)ccn3)C(=O)[C@H]3CC[C@H](OC(=O)NCCC(C)(C)O)CC3)CC2)cc1C [Compound 2.21, trans-4-((4-(1-Isopropyl-1H-pyrazol-4-yl)pyridin-2-yl) ((trans-4-(4-methoxy-3-methylphenyl)cyclohexyl)methyl)carbamoyl) cyclohexyl(3-hydroxy-3-methylbutyl)carbamate]	≥ 7.30
COc1ccc([C@H]2CC[C@H](CN(c3cccc(-c4cnn(C(C)C)c4)c3)C(=O)[C@H]3CC[C@H](OC(=O)NCC(C)F)CC3)CC2)cc1C (stereo partly drawn) [Compound 5.05, trans-4-((3-(1-Isopropyl-1H-pyrazol-4-yl)phenyl)(((trans)-4-(4-methoxy-3-methylphenyl)cyclohexyl)methyl)carbamoyl)cyclohexyl (2-fluoropropyl)carbamate]	≥ 7.30
COc1ccc([C@H]2CC[C@H](CN(c3cc(-c4cnc(C(C)C)s4)ccn3)C(=O)[C@H]3CC[C@H](OC(=O)N4CCN(C)CC4)CC3)CC2)cc1C [Compound 2.40, trans-4-((4-(2-Isopropylthiazol-5-yl)pyridin-2-yl)((trans-4-(4-methoxy-3-methylphenyl)cyclohexyl)methyl)carbamoyl)cyclohexyl 4-methylpiperazine-1-carboxylate]	≥ 7.30
COc1ccc([C@H]2CC[C@H](CN(c3cccc(-c4cnn(C(C)C)c4)c3)C(=O)[C@H]3CC[C@H](CCO)CC3)CC2)cc1C [Compound 15, trans-4-(2-Hydroxyethyl)-N-(3-(1-isopropyl-1H-pyrazol-4-yl)phenyl)-N-((trans-4-(4-methoxy-3-methylphenyl)cyclohexyl)methyl)cy-clohexanecarboxamide]	≥ 7.30
COc1ccc([C@H]2CC[C@H](CN(c3cccc(-c4cnn(C(C)C)c4)c3)C(=O)[C@H]3CC[C@H](CNC(=O)OCCO)CC3)CC2)cc1C [Compound 12.06, 2-Hydroxyethyl (((trans)-4-((3-(1-isopropyl-1H-pyrazol-4-yl)phenyl)(((trans)-4-(4-methoxy-3-methylphenyl)cyclohexyl)methyl)carbamoyl)cyclohexyl)methyl)car-bamate]	≥ 7.30
COc1ccc([C@H]2CC[C@H](CN(c3cccc(-c4cnn(C(C)C)c4)c3)C(=O)[C@H]3CC[C@H](NC(=O)C4CC(=O)C4)CC3)CC2)cc1C [Compound 14.01, trans-N-(3-(1-Isopropyl-1H-pyrazol-4-yl)phenyl)-N-((trans-4-(4-methoxy-3-methylphenyl)cyclohexyl)methyl)-4-(3-oxocyclobutanecarboxamido)cyclo-hexanecarboxamide]	≥ 7.30
COc1ccc(C23CCC(CN(c4cc(-c5cnc(C6CC6)s5)ccn4)C(=O)[C@H]4CC[C@H](OC(=O)N5CC(CO)C5)CC4)(CC2)CC3)cc1C [Compound 4.28, 4-((4-(2-Cyclopropylthiazol-5-yl)pyridin-2-yl)((4-(4-methoxy-3-methylphenyl)bicyclo[2.2.2]octan-1-yl)methyl)carbamoyl)(trans-cyclohexyl) 3-(hydroxymethyl)azetidine-1-carboxylate]	≥ 7.30
COc1ccc(C23CCC(CN(c4cc(-c5cnn(C(F)(F)F)c5)ccn4)C(=O)[C@H]4CC[C@H](OC(=O)N5CC(O)C5)CC4)(CC2)CC3)cc1C [Compound 4.19, 4-(((4-(4-Methoxy-3-methylphenyl)bicyclo [2.2.2]octan-1-yl)methyl) (4-(1-(trifluoromethyl)-1H-pyrazol-4-yl)pyridin-2-yl)carbamoyl) cyclohexyl 3-hydroxyazetidine-trans-1-carboxylate]	≥ 7.30
COc1ccc([C@H]2CC[C@H](CN(c3cc(-c4cnc(C(C)C)o4)ccn3)C(=O)[C@H]3CC[C@H](OC(=O)N4CC(O)C4)CC3)CC2)cc1C [Compound 2.37, trans-4-((4-(2-Isopropyloxazol-5-yl)pyridin-2-yl)((trans-4-(4-methoxy-3-methylphenyl)cyclohexyl)methyl)carbamoyl)cyclohexyl 3-hydroxyazetidine-1-carboxylate]	≥ 7.30
COc1ccc([C@H]2CC[C@H](CN(c3cc(-c4cnn(C(C)C)c4)ccn3)C(=O)[C@H]3CC[C@H](OC(=O)NC(CF)CF)CC3)CC2)cc1C [Compound 2.35, trans-4-((4-(1-Isopropyl-1H-pyrazol-4-yl)pyridin-2-yl)(((trans)-4-(4-methoxy-3-methylphenyl)cyclohexyl)methyl)carbamoyl) cyclohexyl(1,3-difluoropropan-2-yl) carbamate]	≥ 7.30
COc1ccc([C@H]2CC[C@H](CN(c3cc(-c4coc(C(C)C)n4)ccn3)C(=O)[C@H]3CC[C@H](OC(=O)N4CC(O)C4)CC3)CC2)cc1C [Compound 2.24, trans-4-((4-(2-Isopropyloxazol-4-yl)pyridin-2-yl)(((trans)-4-(4-methoxy-3-methylphenyl)cyclohexyl)methyl)carbamoyl) cyclohexyl 3-hydroxyazetidine-1-carboxylate]	≥ 7.30
COc1ccc(C23CCC(CN(c4cc(-c5cnc(C(C)C)s5)ccn4)C(=O)[C@H]4CC[C@H](OC(=O)N5CC(S(C)(=O)=O)C5)CC4)(CC2)CC3)cc1C [Compound 4.34, 4-((4-(2-Isopropylthiazol-5-yl)pyridin-2-yl)((4-(4-methoxy-3-methylphenyl)bicyclo[2.2.2]octan-1-yl)methyl)carbamoyl)(trans-cyclohexyl) 3-(methylsulfonyl)azetidine-1-carboxylate]	≥ 7.30
COc1ccc(C23CCC(CN(c4ccnc(-c5cnn(C6(C)CCC6)c5)c4)C(=O)[C@H]4CC[C@H](OC(=O)N5CC(O)C5)CC4)(CC2)CC3)cc1C [Compound 25.23, 4-(((4-(4-Methoxy-3-methylphenyl)bicyclo[2.2.2]octan-1-yl)methyl)(2-(1-(1-methylcyclobutyl)-1H-pyrazol-4-yl)pyridin-4-yl)carbamoyl)cyclohexyl trans-3-hydroxyazetidine-1-carboxylate]	≥ 7.30
CCC(=O)N[C@H]1CC[C@H](C(=O)N(C[C@H]2CC[C@H](c3ccc(OC)c(C)c3)CC2)c2cccc(-c3cnn(C(C)C)c3)c2)CC1 [Compound 10, trans-N-(3-(1-Isopropyl-1H-pyrazol-4-yl)phenyl)-N-((trans-4-(4-methoxy-3-methylphenyl)cyclohexyl)methyl)-4-propionamidocyclohexanecarboxamide]	≥ 7.30
COc1ccc(C23CCC(CN(c4cc(-c5cnn(C(C)C)c5)ccn4)C(=O)[C@H]4CC[C@H](OC(=O)N(C)CCO)CC4)(CC2)CC3)cc1C [Compound 4.51, 4-((4-(1-Isopropyl-1H-pyrazol-4-yl)pyridin-2-yl) ((4-(4-methoxy-3-methylphenyl)bicyclo [2.2.2]octan-1-yl)methyl)carbamoyl)cyclohexyl (2-hydroxyethyl)(methyl) trans-carbamate]	≥ 7.30
CCc1ncc(-c2ccnc(N(C[C@H]3CC[C@H](c4ccc(OC)c(C)c4)CC3)C(=O)[C@H]3CC[C@H](OC(=O)N4CC(O)C4)CC3)c2)s1 [Compound 2.42, trans-4-((4-(2-Ethylthiazol-5-yl)pyridin-2-yl)((trans-4-(4-methoxy-3-methylphenyl)cyclohexyl)methyl)carbamoyl)cyclohexyl 3-hydroxyazetidine-1-carboxylate]	≥ 7.30
COc1ccc([C@H]2CC[C@H](CN(c3cccc(-c4cnn(C(C)C)c4)c3)C(=O)[C@H]3CC[C@H](OC(=O)NCC(F)(F)CO)CC3)CC2)cc1C [Compound 5.02, trans-4-((3-(1-Isopropyl-1H-pyrazol-4-yl)phenyl)(((trans)-4-(4-methoxy-3-methylphenyl)cyclohexyl)methyl)carbamoyl)cyclohexyl (2,2-difluoro-3-hydroxypropyl)carbamate]	≥ 7.30

From patent publication US20220056019A1, “FARNESOID X RECEPTOR AGONISTS AND USES THEREOF” (Metacrine, Inc., priority 2018, published 2022)
